The values below come from paper PMC7114229 (Antiviral Research, 2019).

The target of one data set is gp120 (Human immunodeficiency virus type 1 group M subtype B, UniProt P03375). The data set can be described thus: biochemical. Format: binding, HIV.
Data set [1] is described as follows: in vitro. The following applies: human.
The subject of another data set is HIV-1 (NL4.3). The data set can be described thus: Anti-HIV-1 activity in MT-4 cell cultures.
For another data set, the system named is HIV-2 (ROD). The data set can be described thus: Anti-HIV-2 activity in MT-4 cell cultures.
The nature of data set [2]: in vitro. The following applies: human. This is another data set of the same source.
Data set [3] concerns EV71 BrCr laboratory-adapted strain. The data set can be described thus: Anti-EV71 assay, BrCr laboratory-adapted strain in RD cells. The following applies: Enterovirus A.
For data set [4], the system named is EV71 VP1_S184T_ P246S (RES). Format: cell-based.
For a further data set, the system named is MT-4 cells. The following applies: read-out: CC50 (MT-4); MT-4 cultures; host cell viability.

Like-named read-outs stand apart in the source and are kept apart here.

What is called EC50 is the concentration needed to bring the measured effect to its halfway point. For the molecule `CN[C@@H]1[C@H](O[C@@H]2OC[C@@H](O)[C@H](O)[C@H]2O)[C@@H](O)[C@H](O[C@H]2c3cc(C)c(C(=O)N[C@H](C)C(=O)O)c(O)c3-c3c(cc4c(c3O)C(=O)c3cc(OC)cc(O)c3C4=O)[C@@H]2O)O[C@@H]1C` [PRM-A, pradimycin A], the Kd stood at 6.92e-06 M on gp120 (KD (10^−6) (M), apparent KD, SPR, three replicates) and 6.9e-06 M at gp120 (apparent KD for binding to gp120, SPR). Also, the kon at gp120 (read-out: Ka (10^3) (1/M.s)) is 2760 ± 1000 M⁻¹ s⁻¹. Further, the CC50 in “in vitro [1]” was > 100 µM. For the same molecule, the EC50 with HIV-1 (NL4.3) (Human immunodeficiency virus 1, MT4, read-out: HIV-1 EC50) amounted to 3.3 ± 1.2 µM; in the data set on HIV-2 (ROD) (Human immunodeficiency virus 2, MT4, read-out: HIV-2 EC50), 5.9 ± 3.7 µM.
As a reminder, the EC90 is the concentration at which the effect reaches the 90% level. For the molecule `CCOC(=O)c1ccc(OCCC2CCN(c3ccc(C)nn3)CC2)cc1` [Pirodavir, pirodavir], the CC50 in “in vitro [2]” is > 100 µM. Besides, the concentration for an effect of 90% (EC90) in data set [3] (EV71, RD, read-out: EV71 EC90) amounted to 0.6 ± 0.2 µM.
For `CCOC(=O)/C=C/[C@H](C[C@@H]1CCNC1=O)NC(=O)[C@@H](CC(=O)[C@@H](NC(=O)c1cc(C)on1)C(C)C)Cc1ccc(F)cc1` [Rupintrivir, rupintrivir], the “antiviral activity against the mutant virus strain” value in data set [4] (EV-71 variant (RES)) was “retained full antiviral activity”. The EC50 in data set [4] (read-out: VP1_S184T_ P246S (RES) EC50) was 0.016 ± 0.006 µM; in data set [3] (EV71|EVA71, RD, read-out: EV-A71 BrCr (WT) EC50), 0.014 ± 0.004 µM.
As to dextran sulfate-5000 [DS-5000], in the data set on MT-4 cells, the CC50 is > 20 µM. Also, the EC50 in the data set with HIV-1 (NL4.3) (read-out: HIV-1 EC50, MT-4 cultures, inhibition of virus-induced cytopathicity by 50%) came to 0.07 ± 0.02 µM; in the data set on HIV-2 (ROD) (read-out: HIV-2 EC50, MT-4 cultures, inhibition of virus-induced cytopathicity by 50%), 0.03 ± 0.01 µM.
